Tests used:
[1] = biological target: T1, Ldtfm (Enterococcus faecium, UniProt Q3Y185); assay: stopped-flow competition with nitrocefin at […] nm; assay type: binding; details: covalent; irreversible acylation; 22 µM enzyme, 50 µM nitrocefin, 64 µM imipenem; 100 mM sodium phosphate pH 6.0; 20 °C
T1 construct: gene HMPREF0351_12555; catalytic domain, residues 341 to 466

[2] = biological target: T1, Ldtfm; assay: stopped-flow spectrophotometry at […] nm, slope of kobs against nitrocefin concentration; assay type: biochemical; details: covalent; reversible acylation of catalytic Cys; 11 µM enzyme; 100 mM sodium phosphate pH 6.0; 20 °C

T1 sequence (Q3Y185 entry or part of it): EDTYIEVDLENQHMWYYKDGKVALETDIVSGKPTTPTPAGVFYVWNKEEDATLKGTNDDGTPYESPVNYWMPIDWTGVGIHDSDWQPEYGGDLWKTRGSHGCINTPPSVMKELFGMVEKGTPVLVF

Compound | stopped-flow competition with nitrocefin at 486 nm [1] | efficacy of the acylation reaction [2]
C[C@@H](O)[C@H]1C(=O)N2C(C(=O)O)=C(SCCN=CN)C[C@H]12 [imipenem] | imipenem gradually replaced nitrocefin in the enzyme active site | 
O=C(Cc1cccs1)N[C@@H]1C(=O)N2C(C(=O)O)=C(/C=C/c3ccc([N+](=O)[O-])cc3[N+](=O)[O-])CS[C@H]12 [nitrocefin] |  | 24,000 ± 700 M^−1 s^−1

Reference: publication PMC5567249, “Reversible inactivation of a peptidoglycan transpeptidase by a β-lactam antibiotic mediated by β-lactam-ring recyclization in the enzyme active site” (Scientific Reports, 2017)
